# Reference: US20180111991A1, “MODULATORS OF ACTIVIN AND METHODS FOR MODULATING IMMUNE RESPONSES AND T FOLLICULAR HELPER CELLS” (LA JOLLA INSTITUTE FOR ALLERGY AND IMMUNOLOGY, priority 2014, published 2018)
# “Also recorded” adds a separate entry of the source.
# Legend:
# [1] = tested on: rhesus macaque naïve CD4 T cells; assay: Non-human primate (NHP) differentiation; type: cell-based, macaca mulatta (rhesus macaques); conditions: 5 days
# Protocol: CD4^+ T cells from rhesus macaque PBMCs were enriched using the Non-Human Primate CD4^+ T Cell Isolation Kit (Miltenyi Biotec). Naïve CD4^+ T cells were isolated by FACS sorting as CD4^+CD45RA^+CD95^−CD28^+CCR7^+ cells. Naïve CD4^+ T cells (7.5×10^4 cells/well) were activated by plate-bound anti-human-CD3 and anti-human-CD28 (both at 5 μg/ml, BD) and cultured with recombinant human/mouse/rat activin A (50 ng/ml) and/or recombinant human IL-12 (5 ng/ml) for 5 days. Phenotype was assessed by flow cytometry.
# SMAD2/3 = assay: Analysis of phosphorylated SMAD2/3 in tonsil CD4 T cells; type: cell-based, human; conditions: for P-SMAD induction: activin A
# From the text: Fresh PBMCs and tonsil mononuclear cells were serum-starved over night in AIM-V medium. […] Following stimulation, the cells were fixed in BD Phosflow™ Fix Buffer I (BD Biosciences), then permeabilized using BD Phosflow™ Perm Buffer III (BD Biosciences) following manufacture's instruction.
substance,measurement,setting,value
"activin A: commercial recombinant cytokine, homodimer of the INHBA gene product (inhibin beta A)",induction of PD-1+CXCR5+ cells,[1],Potent induction of PD-1^+CXCR5^+ cells; also recorded: potent CXCR5 and PD-1 inducer for both human and non-human primate activated naïve CD4 T cells
same,P-SMAD induction,SMAD2/3; tonsil PD-1intCXCR5int mTfh cells,moderate but specific P-SMAD induction
same,P-SMAD induction,SMAD2/3; tonsil fully mature GC Tfh cells,did not
same,phosphorylation of SMAD2/3,SMAD2/3; tonsil naïve CD4 T cells cultured with activin A,quickly phosphorylated SMAD2/3
